Data: patent publication EP2535710A1, “Method for determining the immune toxicity of a compound in vitro” (Rijksinstituut Voor Volksgezondheid En Milieu, priority 2011, dated 2012)

Legend:
[1] = test system: RPS6KB1 (Thr444/Ser447); experiment: Western blot analysis of TBTO-treated and control cell extracts; format: cell-based, Murine; conditions: treated cells compared to control extract, EL4 cells, 0.5 µM TBTO, 6 hr, Figure 1a
Description: (§1) Murine EL4 cells were cultured as described before.
(§2) After exposure, cell suspensions were centrifuged at 1200 rpm for 10 min at 4 °C and the pellets were washed in 20 mL phosphate-buffered saline (PBS, pH 7.2) and centrifuged again. This procedure was repeated twice. The obtained cell pellet of each sample or control was then suspended in 5 mL of phosphoprotein lysis buffer prepared following the instructions of Phosphoprotein Purification Kit (Qiagen). This volume of the lysis buffer contained, in addition to the detergent CHAPS and Benzonase (10 µL), one tablet of protease inhibitor and Phosphatase Inhibitor Cocktail 1 (10 µL). The cell suspension was incubated on ice for 30 min and vortexed briefly and gently every 10 min. After that, the cell lysate was centrifuged at 10.000 rpm for 30 min at 4 °C. The supernatant was then taken and protein concentration determined according to Bradford. A total amount of 2.5 mg protein, at the concentration of 0.1 mg/mL, was loaded on the affinity column, which was pre-equilibrated with lysis buffer as recommended by the manufacturer. The chromatography was performed at room temperature. […] These enriched fractions were combined and the protein concentration was determined. […]

[2] = test system: Matrin 3; experiment: as above; format: cell-based, Murine; conditions: Immunoblot, TBTO-treated cells versus control extract; EL4 cells, 0.5 µM TBTO, 6 hr; Fig. 1 b
Description: as §1, §2

[3] = test system: MAPK1; experiment: Phosphoproteome analysis of TBTO-treated cells (phosphoprotein and TiO2 phosphopeptide enrichment, nano-LC/MS/MS); format: cell-based, Murine; conditions: whole protein; abundantly present in control cells; EL4 cells, 0.5 µM TBTO, 6 hr
Description: as §1, §2

[4] = test system: Murine EL4 cells; conditions: trypan blue dye exclusion, 0.5 µM TBTO, 37 °C for 6 hr, range in all experiments
Description: Murine EL4 cells were cultured as described before [10]. Each treated sample or control contained 5×10^7 cells in a volume of 20 mL. A 1 mM TBTO stock solution was prepared in ethanol and 10 µl of this solution was added to each one of the cell suspension samples so that the final concentration of TBTO was 0.5 µM, whereas 10 µl of ethanol without TBTO was added to the control cells. Two independent replicate experiments for both treated sample and control were performed. Subsequently, cells were incubated at 37 °C for 6 hr.

[5] = test system: cells; conditions: TBTO concentrations higher than 1µM and incubation times longer than 6h; refs [10, 21]; cited from earlier work

Q: With CCC[CH2][Sn]([CH2]CCC)([CH2]CCC)[O][Sn]([CH2]CCC)([CH2]CCC)[CH2]CCC [TBTO, tributyltin oxide] as the compound, how does the “intensity signal of the band corresponding to Thr444/Ser447” value [1] read?
A: The value was “decrease in the intensity signal”.

Q: And the “band corresponding to Matrin 3 (ca. 125-130 kDa)” value [2]?
A: The value was “not detectable”.

Q: And the “detection of MAPK1 phosphoprotein in TBTO-treated cells” value [3]?
A: The value was “not detected”.

Q: And the Cell viability [4]?
A: Its Cell viability is 85-90%.

Q: And the apoptosis of cells [5]?
A: Its apoptosis of cells is “caused apoptosis of cells”.
